A short description of data set [1]: Metabolic stability in rat liver microsomes assessed as compound remaining at 10 uM after 30 mins. Type of data set: ADME. Conditions: read-out: Stability.
In data set [2] the target is T1, Retinol-binding protein 4 (Homo sapiens, UniProt P02753). The data set can be described thus: Displacement of [3H]-retinol from RBP4 (unknown origin) by scintillation proximity assay.
Data set [3] deals with T1, Retinol-binding protein 4. The data set can be described thus: Inhibition of retinol-induced interaction of bacterially expressed MBP-tagged RBP4 (unknown origin) with Eu3+ cryptate labeled TTR by HTRF assay.
Data set [4] in a line: Metabolic stability in human liver microsomes assessed as compound remaining at 10 uM after 30 mins. The following applies: read-out: Stability. Type of data set: ADME.

For `Cc1cc(C(=O)O)nc(N2CCC(c3ccccc3C(F)(F)F)CC2)n1`, the results for the remaining at 0.5 h, 10 µM in data set [1] and in data set [4] were 96% and 68%, respectively. The IC50 in data set [2] came out at 35.3 nM; in data set [3], 188 nM.

As for `COc1cc(C(=O)O)nc(N2C[C@H]3C[C@@H](c4ccccc4C(F)(F)F)C[C@H]3C2)n1`, the values for the IC50 in data set [2] and in data set [3] were 12.8 nM and 81.2 nM, respectively.

For the molecule `Cc1cc(C(=O)O)nc(N2C[C@H]3C[C@@H](c4cccnc4C(F)(F)F)C[C@H]3C2)n1`, the values for the IC50 in data set [2] and in data set [3] were 31.1 nM and 719 nM, respectively.

In the case of `Cc1cc(C(=O)O)nc(N2C[C@@H]3CN(c4ccccc4C(F)(F)F)C[C@@H]3C2)n1`, the remaining at 0.5 h, 10 µM in data set [1] was found to be 76%; in data set [4], 80%. In addition, the IC50 came out at 57.4 nM in data set [2] and 140 nM in data set [3].

Regarding `Cc1cc(C(N)=O)nc(N2C[C@H]3C[C@@H](c4ccccc4C(F)(F)F)C[C@H]3C2)n1`, the IC50 in data set [2] was determined as 3.3 nM; in data set [3], 248 nM.

For `Cc1ccc(C(=O)O)c(N2C[C@H]3C[C@@H](c4ccccc4C(F)(F)F)C[C@H]3C2)n1`, the IC50 in data set [2] is 68.4 nM; in data set [3] it was 2000 nM.

In turn, `O=C(O)c1cncc(N2C[C@H]3C[C@@H](c4ccccc4C(F)(F)F)C[C@H]3C2)c1` registered an IC50 in data set [2] of over 3000 nM.

On to `COC(=O)c1cc(C)nc(N2CCN(c3ccccc3C(F)(F)F)CC2)n1`, for which the remaining at 0.5 h, 10 µM in data set [1] and in data set [4] was 0% throughout. The IC50 in data set [2] is 9.7 nM; in data set [3], 1400 nM.

With `O=C(O)c1cccc(N2C[C@H]3C[C@@H](c4ccccc4C(F)(F)F)C[C@H]3C2)c1`, the IC50 in data set [2] was found to be 83.2 nM; in data set [3] it was 3960 nM.

For `Cc1ccc(N2C[C@H]3C[C@@H](c4ccccc4C(F)(F)F)C[C@H]3C2)nc1C(=O)O`, the figures for the IC50 in data set [2] and in data set [3] were 584 nM and 4910 nM, respectively.

For the molecule `Cc1cc(C(=O)O)nc(N2CCN(c3ccccc3C(F)(F)F)CC2)n1`, the remaining at 0.5 h, 10 µM in data set [1] was determined as 63%; in data set [4], 18%. Further, the IC50 in data set [2] was 89.5 nM; in data set [3], 511 nM.

Consider `Cc1cc(C(=O)O)nc(N2C[C@H]3C[C@@H](c4cnccc4C(F)(F)F)C[C@H]3C2)n1`, for which the half-maximal inhibitory concentration (IC50) in data set [2] was 51.8 nM; in data set [3], 821 nM.

As for `COC(=O)c1cc(C)nc(N2C[C@H]3C[C@@H](c4ccccc4C(F)(F)F)C[C@H]3C2)n1`, the values for the remaining at 0.5 h, 10 µM in data set [1] and in data set [4] were 9.8% and 0.2%, respectively. The IC50 in data set [2] came out at 6.3 nM; in data set [3] it was 100 nM.

In data set [2], `O=C(O)c1cncc(N2C[C@H]3C[C@@H](c4ccccc4C(F)(F)F)C[C@H]3C2)n1` showed an IC50 of 166 nM.

`Cc1nc(N2C[C@H]3C[C@@H](c4ccccc4C(F)(F)F)C[C@H]3C2)ncc1C(=O)O`: the IC50 in data set [2] stood at 40.8 nM; in data set [3] it was 523 nM.

`Cc1cc(C(=O)O)nc(N2C[C@H]3C[C@@H](c4cccc(F)c4C(F)(F)F)C[C@H]3C2)n1` yielded an IC50 in data set [2] of 196 nM.

With `Cc1cc(C(=O)O)nc(N2C[C@H]3C[C@@H](c4cc(F)ccc4Cl)C[C@H]3C2)n1`, the IC50 in data set [2] is 532 nM; in data set [3], 347 nM.

Consider `O=C(O)c1cnnc(N2C[C@H]3C[C@@H](c4ccccc4C(F)(F)F)C[C@H]3C2)c1`, for which the IC50 is 23 nM in data set [2] and 437 nM in data set [3].

On to `Cc1cc(C(=O)O)nc(N2C[C@H]3C[C@@H](c4cc(F)ccc4C(F)(F)F)C[C@H]3C2)n1`, for which the half-maximal inhibitory concentration (IC50) in data set [2] worked out at 46.3 nM; in data set [3] it was 33.4 nM.

With `Cc1sc(N2C[C@H]3C[C@@H](c4ccccc4C(F)(F)F)C[C@H]3C2)nc1C(=O)O`, the IC50 is 29.3 nM in data set [2] and 495 nM in data set [3].

On to `Cc1cc(-c2nnn[nH]2)nc(N2C[C@H]3C[C@@H](c4ccccc4C(F)(F)F)C[C@H]3C2)n1`, for which the IC50 in data set [3] turned out to be 175 nM.

In data set [2], `CC(C)c1cc(C(=O)O)nc(N2C[C@H]3C[C@@H](c4ccccc4C(F)(F)F)C[C@H]3C2)n1` had a half-inhibitory concentration (IC50) of 153 nM.

Regarding `COC(=O)c1cc(C)nc(N2CCC(c3ccccc3C(F)(F)F)CC2)n1`, the results for the IC50 in data set [2] and in data set [3] were 4.1 nM and 132 nM, respectively.

For `Cc1cc(C(=O)O)nc(N2C[C@H]3C[C@@H](c4cccc(F)c4Cl)C[C@H]3C2)n1`, the IC50 turned out to be 137 nM in data set [2] and 504 nM in data set [3].

As to `O=C(O)c1ccnc(N2C[C@H]3C[C@@H](c4ccccc4C(F)(F)F)C[C@H]3C2)n1`, the IC50 in data set [2] is 20.8 nM.

Values taken from ChEMBL document CHEMBL3593175, “Bicyclic [3.3.0]-Octahydrocyclopenta[c]pyrrolo Antagonists of Retinol Binding Protein 4: Potential Treatment of Atrophic Age-Related Macular Degeneration and Stargardt Disease” (J Med Chem, 2015).
